Test results published in ChEMBL document CHEMBL1201862, “PubChem BioAssay data set” (2004).
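Growth conditions: 96-well plates. Treatment: test compound, 48 hours, 5 concentrations. Analysis: linear interpolation between bracketing concentrations; unreached endpoints set to highest concentration. GI50 = concentration required for 50% inhibition of growth.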 The source made the active and inactive calls. Rule as the data show it: active = GI50 up to about 1.1 µM and inactive = higher.

Assays:
Assay in all cases: growth of human tumour cells (NCI), 48 h
HOP-92 = test system: HOP-92
SF-539 = test system: SF-539
TK-10 = test system: TK-10
HOP-62 = test system: HOP-62
SK-MEL-2 = test system: SK-MEL-2
ACHN = test system: ACHN
A498 = test system: A498
RXF 393 = test system: RXF 393
OVCAR-4 = test system: OVCAR-4
Hs-578T = test system: Hs-578T
A549 = test system: A549
T47D = test system: T47D
MCF7 = test system: MCF7
UO-31 = test system: UO-31
DU-145 = test system: DU-145
U-251 = test system: U-251
CCRF-CEM = test system: CCRF-CEM
PC-3 = test system: PC-3
LOX IMVI = test system: LOX IMVI

Measured: GI50

O=C(Cc1ccccc1)NN1C(=O)/C(=C\c2cccc([N+](=O)[O-])c2)S/C1=N\c1ccccc1
inactive: HOP-92 44 µM | SF-539 > 100 µM | TK-10 > 100 µM | HOP-62 > 100 µM | SK-MEL-2 > 100 µM | ACHN > 100 µM | A498 > 100 µM | RXF 393 > 100 µM | OVCAR-4 > 100 µM | Hs-578T > 100 µM | A549 > 100 µM | T47D > 100 µM | MCF7 34.7 µM | UO-31 > 100 µM | DU-145 > 100 µM | U-251 > 100 µM

CSc1c(C#N)c(S)n(-c2ccc(Cl)cc2)c(=O)c1C#N
inactive: SF-539 > 100 µM | TK-10 > 100 µM | SK-MEL-2 > 100 µM | A498 > 100 µM | RXF 393 93.3 µM | CCRF-CEM 32.5 µM | OVCAR-4 46.1 µM | PC-3 76.9 µM | Hs-578T > 100 µM | LOX IMVI > 100 µM | A549 > 100 µM | T47D 47.5 µM | MCF7 > 100 µM | UO-31 27.9 µM | DU-145 > 100 µM | U-251 > 100 µM

CCOC(=O)c1nnsc1NN=C(C)C
inactive: SF-539 > 100 µM | TK-10 > 100 µM | HOP-62 > 100 µM | SK-MEL-2 > 100 µM | A498 > 100 µM | RXF 393 > 100 µM | OVCAR-4 > 100 µM | PC-3 > 100 µM | Hs-578T > 100 µM | LOX IMVI > 100 µM | A549 > 100 µM | T47D > 100 µM | UO-31 > 100 µM | DU-145 > 100 µM | U-251 > 100 µM

CS(=O)(=O)NC12CCC(c3ccccc31)c1ccccc12
inactive: HOP-92 > 100 µM | SF-539 > 100 µM | TK-10 > 100 µM | HOP-62 > 100 µM | SK-MEL-2 > 100 µM | ACHN > 100 µM | A498 > 100 µM | CCRF-CEM > 100 µM | OVCAR-4 > 100 µM | PC-3 > 100 µM | Hs-578T > 100 µM | LOX IMVI > 100 µM | A549 > 100 µM | T47D > 100 µM | MCF7 > 100 µM | UO-31 > 100 µM | DU-145 > 100 µM | U-251 > 100 µM
